Blank lines part the entries; values can stand above or below the molecule they belong to.
Assays:
dopamine receptors = details: Shannon et al.; cited from earlier work
mice [1] = test: Catalepsy (rod test) in mice; format: in vivo; details: mice (FIG. 5)
Description: (§1) Male Non-Swiss Albino mice (Harlan Sprague-Dawley) were housed (4 mice/cage) in rooms with temperature and humidity controlled and water and food (Harlan Teklad) freely available. Mice were kept on a 12-hr light:dark cycle.
A custom-built 8-mm rod that is raised 3.5 cm from the lab benchtop was used. 61KS19 (10 mg/kg) or haloperidol (1 mg/kg) were administered i.p. 60 min before the start of the session. The forepaws of each animal is placed on the rod and the time to step down is measured. If the animal steps off immediately, another attempt is made until the animal stays on for more than 10 sec or 10 attempts have been made. A maximum of 2 min is allowed at which time the animal is taken away from the rod and returned to the homecage. Each dose or dose combination was tested in a separate group of animals (n=6). Averages and standard errors were calculated and compared using an ANOVA and post-hoc Dunnett's t-tests.

M4 muscarinic receptor = molecular target: T1, M4 muscarinic receptor (Homo sapiens, UniProt P08173); test: R-SAT functional assay, muscarinic M4 receptor; format: cell-based
T1 construct: expressed in transfected cells; host or cells: NIH-3T3 cells (ATCC CRL 1658)
T1 sequence (P08173 1-479): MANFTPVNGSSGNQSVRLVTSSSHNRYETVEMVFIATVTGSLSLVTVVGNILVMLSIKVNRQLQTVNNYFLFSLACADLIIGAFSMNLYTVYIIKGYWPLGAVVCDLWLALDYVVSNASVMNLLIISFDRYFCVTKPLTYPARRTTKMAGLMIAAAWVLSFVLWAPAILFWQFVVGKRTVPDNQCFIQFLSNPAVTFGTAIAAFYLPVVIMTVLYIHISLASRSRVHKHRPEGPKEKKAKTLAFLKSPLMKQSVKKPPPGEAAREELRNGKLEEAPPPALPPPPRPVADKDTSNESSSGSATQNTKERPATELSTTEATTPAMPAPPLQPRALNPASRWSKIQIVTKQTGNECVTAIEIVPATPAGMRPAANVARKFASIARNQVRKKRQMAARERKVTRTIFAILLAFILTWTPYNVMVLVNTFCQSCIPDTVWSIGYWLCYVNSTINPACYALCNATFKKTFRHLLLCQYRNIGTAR
Description: (§2) The M1 and M4 muscarinic receptor subtypes were cloned substantially as described by Bonner et al., (1987) Science […] p. 527 and Bonner et al, (1988) Neuron 1, p. 403. R-SAT assays were carried out substantially as described in U.S. Pat. No. 5,707,798 and by Braüner-Osbome, H. B. and Brann, M. R. (1995), Eur. J. Pharmacol. 295:93-102. NIH-3T3 cells (available from the American Type Culture Collection as ATCC CRL 1658) were transfected with plasmid DNA encoding the m1 and m4 receptors and plasmid DNA encoding β-galactosidase. Transfected cells were grown in the presence of between 1 nM and 40 μM of the test compound for 5 days. On day 5, the cells were lysed using 0.5% nonidet-P and β-galactosidase expression was quantified using the chromogenic substrate o-nitrophenyl-p-D-galactoside (ONGP).
(§3) Data were normalized relative to the maximum response of the cells to the muscarinic agonist carbachol, and the following equation was fitted to the data: response=minimum+(maximum−minimum)/(1+([ligand]/EC50)) % Efficacy was defined as (maximum−minimum)/(maximum response of cells to carbachol). pEC50=−log (EC50). Where data gave a bell-shaped curve, “maximum” was defined as the highest observed response.

M1 muscarinic receptor = molecular target: T2, M1 muscarinic receptor (Homo sapiens, UniProt P11229); test: R-SAT functional assay, muscarinic M1 receptor; format: cell-based
T2 construct: expressed in transfected cells; host or cells: NIH-3T3 cells (ATCC CRL 1658)
T2 sequence (P11229 1-460): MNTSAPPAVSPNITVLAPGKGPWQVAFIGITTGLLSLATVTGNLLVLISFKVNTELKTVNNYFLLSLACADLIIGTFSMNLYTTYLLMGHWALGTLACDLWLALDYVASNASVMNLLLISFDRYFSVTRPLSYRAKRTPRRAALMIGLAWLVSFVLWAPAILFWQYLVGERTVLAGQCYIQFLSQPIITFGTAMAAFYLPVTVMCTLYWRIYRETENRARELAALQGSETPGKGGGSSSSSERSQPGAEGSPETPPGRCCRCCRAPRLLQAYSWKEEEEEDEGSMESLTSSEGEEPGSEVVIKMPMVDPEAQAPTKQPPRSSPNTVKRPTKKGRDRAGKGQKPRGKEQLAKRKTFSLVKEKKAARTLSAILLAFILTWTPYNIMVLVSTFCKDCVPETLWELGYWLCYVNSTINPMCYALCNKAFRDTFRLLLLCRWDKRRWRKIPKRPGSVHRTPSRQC
Description: as §2, §3

mice [2] = test: Spontaneous locomotor activity in mice; format: in vivo; details: 10 mg/kg i.p., mice (FIG. 1)
Description: as §1
(§4) Plastic 20×20×30 cm activity cages were equipped with photocell beams (AccuScan Instruments). For spontaneous activity, 61KS19 (1, 3 and 10 mg/kg) was administered alone i.p. 30 min before the session. For hyperactivity experiments, mice were treated with 0.3 mg/kg dizocilpine, 3.0 mg/kg d-amphetamine or 3.0 mg/kg scopolamine i.p. 15 min before the session (15 min after 61KS19). Locomotor data were collected during a 15 min session without habituation in a lit room. Each dose combination was tested in a separate group of animals (n=8). Distance traveled (cm) was calculated and averaged followed by ANOVA and post-hoc Dunnett's t-test comparisons.

mice [3] = test: Amphetamine-induced hyperactivity in mice; format: in vivo; details: 3 and 10 mg/kg i.p., mice (FIG. 2)
Description: as §1, §4

[4] = molecular target: T3, human dopamine D2 receptor (Homo sapiens, UniProt P14416); test: [3H]-Spiperone radioligand binding to D2 receptor membranes; details: tSA cell membranes, 150 pM [3H]-Spiperone; read-out: D2 [3H]Spiperone pIC50 (converted)
T3 construct: expressed in transfected cells; host or cells: tSA cells
T3 sequence (P14416 1-414 isoform P14416-2): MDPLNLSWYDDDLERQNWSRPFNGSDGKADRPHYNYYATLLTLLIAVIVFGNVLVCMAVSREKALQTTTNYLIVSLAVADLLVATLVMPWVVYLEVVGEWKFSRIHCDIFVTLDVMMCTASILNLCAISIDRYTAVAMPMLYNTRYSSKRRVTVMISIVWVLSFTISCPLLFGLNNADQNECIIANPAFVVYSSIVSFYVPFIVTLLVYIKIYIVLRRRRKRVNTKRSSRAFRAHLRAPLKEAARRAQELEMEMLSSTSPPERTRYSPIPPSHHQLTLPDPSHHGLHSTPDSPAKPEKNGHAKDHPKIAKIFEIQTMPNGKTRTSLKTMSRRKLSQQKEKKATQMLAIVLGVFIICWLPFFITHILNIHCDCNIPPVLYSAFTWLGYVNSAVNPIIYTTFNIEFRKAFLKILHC
Description: The D2 dopamine receptor subtype was cloned substantially as described by Stormann, Gdula, Weiner and Brann, 1990 [Mol Pharmacol 37, 1-6]. Cell membranes expressing the D2 receptor were prepared by transfecting tSA cells (Chahine, M., Bennet, P. B., George, A. L., Horn, R. (1994) Pfluegers Arch. 427, 136-142) with 10 μg plasmid DNA encoding the human dopamine D2 receptor and 40 μl Superfect (Qiagen). The cells were harvested 48 hours and transfection and membranes were prepared by homogenizing the cells using a Polytron harvester in 20 mM Hepes, 10 mM EDTA, pH 7.4. The homogenate was centrifuged for 30 minutes at 37,000 g. The pellet was homogenized again in 60 ml 20 mM Hepes, 5 mM EDTA. The homogenate was centrifuged for 30 minutes at 37,000 g. The supernatant was discarded. The pellet was homogenized again in 10 ml 20 mM Hepes, 1 mM EDTA. The resultant membranes were frozen at −80° C.
The membranes were combined with 150 pM [^3H]-Spiperone (Amersham-Pharmacia, 107 Ci/mmol) and ligand concentrations between 1 nM and 10 μM, or haloperidol concentrations between 0.1 nM and 1 μM in 460 μl 20 mM Hepes, 1 mM EDTA, 0.1% (w/v) bovine serum albumin. Nonspecific binding was defined as binding in the presence of 1 μM haloperidol. The membranes were incubated for 4 hours at 37° C., and then filtered onto Packard GFB Filterplates using a Packard harvester. The membranes were dried and 50 μl Microscint (Packard) was added to each well. The amount of bound radioligand was quantified using a Packard Topcount scintillation counter.
Data were normalized relative to the maximum inhibition of [^3H]-Spiperone binding by 1 μM haloperidol, and the following equation was fitted to the data: % inhibition=minimum+(maximum−minimum)/(1+([ligand]/[IC50])) % inhibition was defined as (maximum−minimum)/(maximum response of cells to haloperidol). pIC50=−log (IC50). NT=not tested. Results

mice [5] = test: Scopolamine-induced hyperactivity in mice; format: in vivo; details: 1, 3 and 10 mg/kg i.p., mice (FIG. 3)
Description: as §1, §4

mice [6] = test: MK-801 (dizocilpine)-induced hyperactivity in mice; format: in vivo; details: 10 mg/kg i.p., mice (FIG. 4)
Description: as §1, §4

[7] = human, in vivo; cited from earlier work

SMILES: CCCCCCOc1nsnc1C1=CCCN(C)C1 [Xanomeline]
affinity for dopamine receptors (dopamine receptors): little or no affinity for dopamine receptors

SMILES: O=C(CCCN1CCC(O)(c2ccc(Cl)cc2)CC1)c1ccc(F)cc1 [haloperidol, reference compound]
induction of catalepsy (mice [1]; haloperidol 1 mg/kg i.p.): unlike haloperidol

binding efficacy for the M4 receptor subtype (M4 muscarinic receptor): high binding efficacy
Emax (M4 muscarinic receptor; NIH3T3, R-SAT, transfected NIH-3T3 cells, relative to maximum response to carbachol, read-out: M4 % Efficacy): 141%
EC50 (M4 muscarinic receptor; R-SAT, transfected NIH-3T3 cells, read-out: M4 pEC50 (converted)): 31.6 nM
binding efficacy for the M1 receptor subtype (M1 muscarinic receptor): high binding efficacy
Emax (M1 muscarinic receptor; NIH3T3, R-SAT, transfected NIH-3T3 cells, relative to maximum response to carbachol, read-out: M1 % Efficacy): 115%
EC50 (M1 muscarinic receptor; R-SAT, transfected NIH-3T3 cells, read-out: M1 pEC50 (converted)): 25.1 nM
IC50 [4]: 794 nM
SMILES: CCCCC1CCN(CCCn2c(=O)[nH]c3ccccc32)CC1 [Compound 61KS-19, 1-(3-[4-Butylpiperidino]propyl)-1,3-dihydrobenzimidazol-2-one]
spontaneous locomotor activity (mice [2]): reduction of spontaneous locomotor activity
induction of catalepsy (mice [1]; 10 mg/kg i.p.): failed to induce catalepsy
amphetamine-induced hyperactivity (mice [3]): reduction of amphetamine-induced hyperactivity
scopolamine-induced hyperactivity (mice [5]): reduction of scopolamine-induced hyperactivity
MK-801-induced hyperactivity (mice [6]): reduction of MK-801-induced hyperactivity

SMILES: Nc1c2c(nc3ccccc13)CCCC2 [tacrine]
patients with elevated liver transaminases [7]: about 30%
